The test system of the experiment is Plasmodium falciparum. Nature of the experiment: GSK_TCMDC: Inhibition of Plasmodium falciparum 3D7 in whole erythrocytes, using parasite LDH activity as an index of growth. The note with it: Plasmodium falciparum, 3D7. The format is functional, organism-based.
Take `CCN(CC)CCN(CCCc1ccc(-c2ccc(C(F)(F)F)cc2)cc1)C(=O)Cn1c(CCc2cccc(F)c2F)nc(=O)c2c1CCC2`: the XC50 was 0.828 µM.
With `CCN(CC)CCN(Cc1ccc(-c2ccc(Cl)cc2)cc1)C(=O)Cn1c(CCc2cccc(F)c2F)nc(=O)c2ccccc21`, the XC50 worked out at 0.769 µM.
Consider `Cc1cc(F)ccc1Nc1nc(N(C)c2ccccc2)c2cc(OCCCN(C)C)ccc2n1`, for which the XC50 came out at 0.717 µM.
Regarding `CC1CCCC(NCc2c(O)ccc3ccccc23)C1` (centres undefined), the XC50 was 0.931 µM.
For the compound `O=C(NC1CC1)c1ccc(Cn2c(SCc3cccc([N+](=O)[O-])c3)nc3ccccc3c2=O)cc1`, the XC50 is 0.764 µM.
`O=[N+]([O-])c1cccc(Nc2nccc(-c3cnn4ncccc34)n2)c1` yielded an XC50 of 0.184 µM.
For `O=C(/C=C/c1ccc(O)cc1)NC1CCC(CN2CCC(c3c[nH]c4ccccc34)CC2)CC1` (centres undefined) the value was 0.744 µM; for `O=c1c(NCCCN(Cc2ccc(F)cc2)c2ccccn2)c(NCc2ccncc2)c1=O`, 0.153 µM; for `CCOC(=O)c1c(CN(CC)CC)n(-c2ccccc2)c2cc(Br)c(O)cc12`, 0.998 µM.
`Cc1cc(N[C@@H](Cc2ccccc2)C(=O)NCCc2ccccc2)nc(NCC2CCCCC2)n1` returned an XC50 of 0.917 µM.
Compound `O=C(/C=C/c1ccc(Cl)c(Cl)c1)NCCCCCN1CC[C@H](NC(=O)Nc2ccc(Oc3ccccc3)cc2)C1` registered an XC50 of 0.703 µM.
The compound `Cc1cccc2nc(-c3cccc(-c4cccc(NC(=O)c5ccncc5)c4)c3)[nH]c12` had an XC50 of 0.236 µM.
On to `COc1cc(-c2cc3cc(Cl)c(Cl)cc3[nH]2)ccc1C(=O)NC1CCN(Cc2ccccc2)CC1`, for which the XC50 was found to be 0.531 µM.
With `Cc1cc(CNCCCCCCNCc2ccc(Cl)cc2)ccc1O`, the XC50 was 0.823 µM.
With `Oc1ccccc1Nc1nc(NCc2ccco2)c2ccccc2n1`, the XC50 came out at 0.644 µM.
Compound `Cc1nc(N)nc(N)c1CCCOc1ccc(Br)cc1` displayed an XC50 of 0.485 µM.
On to `Cc1nc(C)c(-c2ccc(C(=O)c3ccc(Cl)cc3)cc2)c(O)c1Cl`, for which the XC50 came to 0.535 µM.
With `COc1ccc(NC(=O)Nc2ccc(-c3ccccc3)cc2)cc1Cn1cnc(N2CCCNCC2)cc1=O`, the XC50 was determined as 0.759 µM.
`COCCCN=C(S)NN=C(C)c1ccccn1`: the XC50 turned out to be 0.296 µM.
Consider `c1ccc(CNCc2cccc(-c3csc(-c4nc5ccccc5[nH]4)c3)c2)cc1`, for which the XC50 is 0.456 µM.
`CC(=O)c1c(Cc2ccccc2Cl)c[nH]c1C`: the XC50 is 0.848 µM.
`Cc1cc(N[C@@H](Cc2ccccc2)C(=O)NCCOc2ccccc2)nc(Nc2ccccc2)n1` returned an XC50 of 0.875 µM.
Regarding `COc1nc2c(CCN3CC[C@H](NCc4ccc5c(c4)NC(=O)CO5)[C@H](O)C3)c(Cl)cnc2cc1F`, the XC50 was 1.02 µM.
Regarding `CCCCCCCN1CC[C@@H](CCCc2ccnc3ccc(OCCCCNC(N)=O)cc23)[C@@H](CC)C1`, the XC50 was 0.835 µM.
`Cc1noc(-c2ccccc2)c1CN1CCCC2(CC(C(=O)NCc3cccc(F)c3F)=NO2)C1` (centres undefined) came in with an XC50 of 1.01 µM.
`CCCCCCCCc1c(C)nc(C)c(I)c1O` yielded an XC50 of 0.737 µM.
Under `Cc1[nH]c(C)c(-c2ccc(-c3cccc(Cl)c3)nc2)c(=O)c1Br` stands 0.318 µM; under `CCCCCC(C)C(C)c1cc(O)c2c(c1)OC(C)(C)c1cnccc1-2` (centres undefined), 0.77 µM; under `O=C(Nc1nc2cc(S(=O)(=O)NCc3ccc(Cl)c(Cl)c3)ccc2n1CCCn1ccnc1)c1ccc(Cl)cc1`, 0.727 µM.
Turning to `c1ccc(Oc2ccc(Nc3ccnc(Nc4cccc(CNCCCN5CCOCC5)c4)n3)cc2)cc1`, the XC50 amounted to 1.04 µM.
Regarding `CC(C)(C)c1nn(-c2ccccc2)c2[nH]c(=O)c(CNCc3ccccc3)cc12`, the XC50 amounted to 1.05 µM.
Turning to `CC(=O)Nc1ccc(S(=O)(=O)N2CCN(c3nc(NC4CCCC4)c4ccccc4n3)CC2)cc1`, the XC50 worked out at 1.03 µM.
For `CCc1ccc(NC(=O)c2ccc(CN3CCCN(Cc4cccc(Cl)c4)CC3)cc2)cc1` the value was 1.11 µM.
Under `Cc1ccc(-c2cc(C(=O)Nc3ccc(S(=O)(=O)N(C)Cc4ccccc4)cc3)[nH]n2)c(O)c1` stands 0.845 µM; under `CN1CCN(c2ccc(CNc3ccc4ncc(-c5cccc(OC(F)(F)F)c5)n4n3)cc2)CC1`, 0.862 µM; under `COc1ccc(-c2ccc(NC(=O)c3ccc(F)cc3)cc2)cc1CNC(C)C`, 0.758 µM.
For `Cc1ccc(N2C(N)=NC(N)=NC2(C)C)cc1` the value was 0.0366 µM; for `O=C(/C=C/c1ccc(CNCCN2CCOCC2)cc1)NCCc1ccccc1`, 0.864 µM.
Regarding `CCOc1ccc2c(=NN=Cc3cccc(Cl)c3)cc(C)[nH]c2c1`, the XC50 worked out at 0.864 µM.
Compound `c1cc(CN2CCN(c3ccncc3)CC2)cc(-c2cccc(-c3nc4ccccc4[nH]3)c2)c1` yielded an XC50 of 0.126 µM.
For the compound `COc1ccc(-c2cccc(CNC3CCN(C)CC3)c2)cc1S(=O)(=O)NCc1ccccc1`, the XC50 was found to be 0.874 µM.
Under `COc1cccc(-c2csc(C(=O)NC3CCCCN(Cc4ccc(C(C)(C)C)cc4)C3)c2)c1` (centres undefined) stands 0.887 µM; under `CCCN(Cc1nnc(-c2ccco2)o1)C(=O)C1CCCN(C(=O)c2ccc(Cl)cc2)C1` (centres undefined), 0.517 µM.
The compound `CN(C)S(=O)(=O)n1ccc2c3c(N)nc(N)nc3ccc21` showed an XC50 of 0.0459 µM.
For `CCCC(CNCc1ccc(Cl)c(C(F)(F)F)c1)CNc1nc2cnccc2[nH]1` (centres undefined), the XC50 was 0.291 µM.
Take `CC(Nc1cc(-c2ccccn2)nc(-c2ccccn2)n1)c1ccccc1` (centres undefined): the XC50 is 0.453 µM.
The compound `Oc1ccc(CN2CCN(CCOC(c3ccccc3)c3ccc(Cl)cc3)CC2)cc1Cl` (centres undefined) showed an XC50 of 0.858 µM.
Under `N=C(N)NC(=O)Nc1cc(Cl)c(F)c(Cl)c1` stands 0.635 µM; under `O=S(=O)(c1c(Cl)cc(Cl)cc1Cl)N1CCCCC(c2ccc(F)c(F)c2)=N1`, 0.594 µM; under `CCc1c[nH]c2c(N(c3ccccc3)S(C)(=O)=O)cc(C(=O)N[C@@H](Cc3ccccc3)[C@H](O)CNC(C)(C)CCCC(C)C)cc12`, 0.823 µM.
Regarding `COC(=O)c1ccc2nc(-c3ccc(/C=C/C(=O)NC4CCN(Cc5ccccc5)CC4)cc3)[nH]c2c1`, the XC50 came to 0.711 µM.
In the case of `Cc1csc(NC2=NCCN2)n1`, the XC50 stood at 0.471 µM.
In the case of `CC(=O)c1c(CC(=O)O)c2ccccc2n1O`, the XC50 came out at 0.735 µM.
For `CC(Cc1ccc(OCc2ccccc2)cc1)NCC(O)c1cccc(Cl)c1` (centres undefined), the XC50 was determined as 0.547 µM.
For `Cc1ccccc1OCCCc1c(C)nc(N)nc1N` the value was 0.277 µM.
The compound `CCN1CCN(CCNc2c3ccccc3nc3ccccc23)CC1` returned an XC50 of 1.02 µM.
As for `Cc1cc(N[C@@H](CC(C)C)C(=O)NCc2cccc(F)c2)nc(NCCc2ccc(F)cc2)n1`, the XC50 was 1.47 µM.
For `COc1cc2nc(NCCCOC(C)C)n3nc(-c4ccccc4)nc3c2cc1OC` the value was 0.196 µM.
Compound `Cc1noc(C)c1-c1ccc2c(Nc3ccc([N+](=O)[O-])cc3)c(C(N)=O)cnc2c1` came in with an XC50 of 0.692 µM.
For `COc1ccc(NC(=O)/C=C/c2ccccc2Cl)cc1OCCN1CCC(NCc2cccnc2)CC1` the value was 0.761 µM; for `Cc1ccc(-c2ccc(NC(=O)N3CCc4cc(Br)c(N5CCN(C)CC5)cc43)cc2)cn1`, 1.35 µM; for `CC(C)(C)c1ccc(NC(=O)Nc2ccc(Cn3ncc(N4CCCNCC4)c(Cl)c3=O)cc2)cc1`, 0.752 µM.
In turn, `CC[C@H]1C[N+]2([O-])CC[C@@H]1C[C@H]2[C@H](O)c1cc(-c2ccccc2)nc2ccc(OC)cc12` registered an XC50 of 0.84 µM.
Under `COc1ccc(CCN(C)CCOc2ccc(NC(=O)c3cccc4cc5ccccc5nc34)cc2)cc1OC` stands 0.68 µM.

Source of the values: ChEMBL document CHEMBL1157539, “Thousands of chemical starting points for antimalarial lead identification” (Nature, 2010).
